Measurements published in patent US9957257B2, “Amide compounds as 5-HT4 receptor agonists” (SUVEN LIFE SCIENCES LIMITED, priority 2015, dated 2018).

Experiments:
[1] = Radial arm maze; format: in vivo, rats; details: p.o.
Description: The cognition enhancing properties of test compounds of this invention were estimated by using this model.
Radial arm maze consists of a central hub of 45 cm diameter. Each arm was of dimension 42.5×15×24 cm. The maze was elevated to a height of 1 m above the ground. The animals were placed on a restricted diet until they reached approximately 85% of their free feeding weight. During this diet restriction period animals were habituated to the novel feed (pellets). Once the rats reached approximately 85% of their free feeding weight, rats were habituated to the maze on the 1st and 2nd day. […] Animals were randomized on day 2. On the subsequent days the treatment was given as per the allotment. Each animal was introduced into the maze individually for a period of 10 minutes. The arms were baited only once and the animal had to learn the rule that repeated arm entries would not be rewarded. The trial ended once the rat had visited 16 arms or 10 minutes were over or all the pellets were eaten. The arm entries were recorded using the software. Once the trial was over the rat was removed and the maze was cleaned using soap water.

[2] = Object recognition task model; format: in vivo, Male Wistar rats; details: 0.1 mg/kg, p.o.
Description: The cognition enhancing properties of compounds of this invention were estimated by using this model.
Male Wistar rats (230-280 grams) were used as experimental animals. Four animals were housed in each cage. Animals were kept on 20% food deprivation before one day and given water ad libitum throughout the experiment and maintained on a 12 hours light/dark cycle. Also the rats were habituated to individual arenas for 1 hour in the absence of any objects.
One group of 12 rats received vehicle (1 mL/Kg) orally and another set of animals received compound of the formula (I) either orally or i.p., before one hour of the familiar (T1) and choice trial (T2).
The experiment was carried out in a 50×50×50 cm open field made up of acrylic. In the familiarization phase, (T1), the rats were placed individually in the open field for 3 minutes, in which two identical objects (plastic bottles, 12.5 cm height×5.5 cm diameter) covered in yellow masking tape alone (a1 and a2) were positioned in two adjacent corners, 10 cms from the walls. After 24 hours of the (T1) trial for long-term memory test, the same rats were placed in the same arena as they were placed in T1 trial. Choice phase (T2) rats were allowed to explore the open field for 3 minutes in presence of one familiar object (a3) and one novel object (b) (Amber color glass bottle, 12 cm high and 5 cm in diameter). Familiar objects presented similar textures, colors and sizes. During the T1 and T2 trial, explorations of each object (defined as sniffing, licking, chewing or having moving vibrissae whilst directing the nose towards the object at a distance of less than 1 cm) were recorded separately by stopwatch. Sitting on an object was not regarded as exploratory activity, however, it was rarely observed.
T1 is the total time spent exploring the familiar objects (a1+a2).
T2 is the total time spent exploring the familiar object and novel object (a3+b).
The object recognition test was performed as described by Behaviour Brain Research, 31 (1988), 47-59.

[3] = Rodent brain penetration study; format: in vivo, Male Wistar rats; details: male, Wistar, rat, 3 mg/kg, oral (gavage), read-out: Single dose Brain Penetration (Cb/Cp)
Description: Male Wistar rats (225±25 grams) were used as experimental animals. Three animals were housed in each cage. Animals were given water and food ad libitum throughout the experiment and maintained on a 12 hours light/dark cycle. Brain penetration was determined in discrete manner in rats. One day prior to dosing day, male wistar rats (225-250 grams) were acclimatized. After acclimatization the rats were grouped according to their weight. In each group, 3 animals were kept in individual cage and allowed free access to food and water. At each time point (0.50, 1 and 2 hours) n=3 animals were used. The test compounds were suitably preformulated and administered orally at (free base equivalent) 3 mg/kg. Blood samples were removed via, cardiac puncture by using isoflurane anesthesia. The animals were sacrificed to collect brain tissue. Plasma was separated and brain samples were homogenized and stored frozen at −20° C. until analysis. The concentrations of the test compounds in plasma and brain were determined using LC-MS/MS method. The test compounds were quantified in plasma and brain homogenate by qualified LC-MS/MS method using suitable extraction technique. The test compounds were quantified in the calibration range of 1-500 ng/mL in plasma and brain homogenate. Study samples were analyzed using calibration samples in the batch and quality control samples spread across the batch. Extent of brain-plasma ratio was calculated (Cb/Cp).

CC(C)(O)CN1CCC(F)(CNC(=O)c2cc(Cl)c(N)c3ccoc23)CC1 [Example 50, 4-Amino-5-chloro-N-{[4-fluoro-1-(2-hydroxy-2-methylpropyl)-4-piperidinyl]methyl}benzofuran-7-carboxamide L(+)-tartarate]
Reversal of Scopolamine Induced amnesia - Effective dose range [1]: 1 mg/kg, p.o. | Exploration time mean ± S.E.M, Familiar object [2]: 9.89 ± 1.49 s | Exploration time mean ± S.E.M, Novel object [2]: 18.58 ± 2.44 s | Inference [2]: Active | Kp [3]: 1.48 ± 0.26
